Test results taken from patent US20070276134A1, “COMPOSITIONS AND METHODS FOR COMPLEXES OF NUCLEIC ACIDS AND ORGANIC CATIONS” (NASTECH PHARMACEUTICAL COMPANY INC., priority 2006, published 2007).

Experiment: LogP determination in n-octanol and water, classical equilibrium partitioning method
Description: A LogP determination was performed on the salts in n-octanol and water using the classical equilibrium partitioning method. This was performed to evaluate the hydrophobic physical properties of the peptide and determine if there was a difference in the apparent hydrophobicity of the salt form of the siRNA versus the control of the sodium salt of siRNA.

Substance	partitioning as a salt versus partitioning as the sodium salt siRNA complex of DOTAP (1-octanol)	LogP (n-octanol and water, salt form of siRNA)
DOTAP	distinctly different	–
Sodium	–	−1.98
